According to ChEMBL document CHEMBL5241112, “Insights into the recent progress in the medicinal chemistry of pyranopyrimidine analogs” (RSC Med Chem, 2022):
Converted amounts (≈) assume the structure as drawn.

Key:
Homo sapiens = species: Homo sapiens; experiment: Anticoagulant activity in human plasma assessed as activated partial thromboplastin time at 1000 ug/ml incubated for 4 mins; assay type: functional; conditions: dose 1000 µg/ml
Alpha-glucosidase = Alpha-glucosidase (Saccharomyces cerevisiae S288c, UniProt P53341+P38158+P07265); experiment: Inhibition of Saccharomyces cerevisiae alpha-glucosidase preincubated for 5 mins followed by PNP-GLUC substrate addition and measured after 20 mins by spectroscopic analysis; assay type: protein assay
Albumin = Albumin (Bos taurus, UniProt P02769); experiment: […] bovine serum albumin denaturation incubated for 23 mins by UV-Visible spectrophotometry
Albumin, sequence (P02769 whole entry): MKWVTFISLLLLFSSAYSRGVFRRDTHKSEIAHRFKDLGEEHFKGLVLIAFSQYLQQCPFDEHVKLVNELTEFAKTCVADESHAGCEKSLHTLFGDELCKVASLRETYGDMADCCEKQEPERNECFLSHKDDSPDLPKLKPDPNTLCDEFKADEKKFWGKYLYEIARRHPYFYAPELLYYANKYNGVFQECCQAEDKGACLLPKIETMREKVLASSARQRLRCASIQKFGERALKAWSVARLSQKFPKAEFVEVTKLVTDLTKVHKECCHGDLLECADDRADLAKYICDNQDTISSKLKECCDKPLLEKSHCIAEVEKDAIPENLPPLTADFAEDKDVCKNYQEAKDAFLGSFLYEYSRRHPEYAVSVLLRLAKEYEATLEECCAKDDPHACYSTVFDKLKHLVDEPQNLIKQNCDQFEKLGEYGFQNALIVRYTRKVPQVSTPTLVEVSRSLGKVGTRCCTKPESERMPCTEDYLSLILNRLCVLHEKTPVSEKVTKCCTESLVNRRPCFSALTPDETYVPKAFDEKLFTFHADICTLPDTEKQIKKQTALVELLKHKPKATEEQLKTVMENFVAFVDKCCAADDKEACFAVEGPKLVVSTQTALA

[1] = Inhibition of porcine pancreatic alpha-amylase preincubated for 10 mins followed by substrate starch addition and measured after 10 mins by colorimetric analysis; design: species or system Sus scrofa
HepG2 = experiment: Anticancer activity against human HepG2 cells assessed as reduction in cell viability; assay type: functional, cell-based
MCF7 [2] = experiment: Anticancer activity against human MCF7 cells assessed as reduction in cell viability; assay type: functional, cell-based
HCT-116 = experiment: cells; conditions: Homo sapiens
[3] = tested on: Mycobacterium tuberculosis; experiment: Antitubercular activity against Mycobacterium tuberculosis H37Rv assessed as bacterial growth inhibition incubated for 24 hrs by MABA assay; assay type: functional
Staphylococcus aureus [4] = experiment: Antibacterial activity against Staphylococcus aureus assessed as diameter of inhibition zone; assay type: functional
Bacillus subtilis = experiment: Antibacterial activity against Bacillus subtilis assessed as diameter of inhibition zone; assay type: functional
Escherichia coli [5] = experiment: Antibacterial activity against Escherichia coli assessed as diameter of inhibition zone; assay type: functional
Salmonella typhimurium = experiment: Antibacterial activity against Salmonella typhimurium assessed as diameter of inhibition zone; assay type: functional, Salmonella enterica subsp. enterica serovar Typhimurium
Bacillus cereus = experiment: Antimicrobial activity against Bacillus cereus ATCC14579 assessed as diameter of inhibition zone at 20 mg/ml incubated for 24 hrs by disk diffusion method; assay type: functional; conditions: read-out: DIZ
Staphylococcus aureus [6] = experiment: Antimicrobial activity against Staphylococcus aureus NCTC7447 assessed as diameter of inhibition zone at 20 mg/ml incubated for 24 hrs by disk diffusion method; assay type: functional; conditions: read-out: DIZ
Klebsiella pneumoniae = experiment: Antimicrobial activity against Klebsiella pneumoniae UC57 assessed as diameter of inhibition zone at 20 mg/ml incubated for 24 hrs by disk diffusion method; assay type: functional; conditions: read-out: DIZ
Pseudomonas aeruginosa = experiment: Antimicrobial activity against Pseudomonas aeruginosa ATCC 27853 assessed as diameter of inhibition zone at 20 mg/ml incubated for 24 hrs by disk diffusion method; assay type: functional; conditions: read-out: DIZ
Escherichia coli [7] = experiment: Antimicrobial activity against Escherichia coli ATCC 14169 assessed as diameter of inhibition zone at 20 mg/ml incubated for 24 hrs by disk diffusion method; assay type: functional; conditions: read-out: DIZ
MCF7 [8] = experiment: cells; conditions: Homo sapiens, MCF7, 48 h
[9] = Antioxidant activity assessed as DPPH radical scavenging activity incubated for 20 mins by spectrophotometric analysis; assay type: functional; design: concentration or dose not given beside the values
[10] = Antioxidant activity assessed as hydroxyl radical scavenging activity incubated for 5 mins by spectrophotometric analysis; assay type: functional; design: concentration or dose not given beside the values

CC1(C)CC(=O)C2=C(C1)Oc1ncn(-c3cccc(Cl)c3)c(=N)c1C2c1ccccc1 (centres undefined) showed a Time (Homo sapiens) of 54.8 s.

O=C(C1=C(c2ccccc2O)Oc2[nH]c(=S)[nH]c(=O)c2C1c1cc2ccccc2cc1O)N1CCCCC1 (centres undefined) showed an IC50 (Alpha-glucosidase) of 5337 µM, an IC50 (Albumin) of 20.1 µM and an IC50 [1] of 6.49 µM.

Work on CCO/C=N/C1=C(C#N)C(c2ccc(OC)cc2)c2c([nH]c(=O)[nH]c2=O)O1 (centres undefined) yielded an IC50 (HepG2) of 2.09 µM, an IC50 (MCF7 [2]) of 2.43 µM and an IC50 (HCT-116) of 2.61 µM.

COc1ccc2c(c1)C1c3c(nc(=O)[nH]c3O2)Oc2c1c(=O)oc1ccccc21 (centres undefined) gave an MIC [3] of 50 µg/mL (≈ 129 µM).

With N#CC1=C(N)Oc2[nH]c(=O)[nH]c(=O)c2C1c1cccc(Br)c1 (centres undefined) the “diameter of the inhibition zone (DIZ)” value (Staphylococcus aureus [4]) was 16 mm, the “diameter of the inhibition zone (DIZ)” value (Bacillus subtilis) was 18 mm and the “diameter of the inhibition zone (DIZ)” value (Escherichia coli [5]) was 14 mm. The “diameter of the inhibition zone (DIZ)” value (Salmonella typhimurium) was 16 mm.

Cc1nc2c3c(ncn2n1)OC1=C(C(=O)CC(C)(C)C1)C3c1ccccc1 (centres undefined) gave a Time (Homo sapiens) of 60.1 s.

Cc1ccc(C2C(C(=O)N3CCCCC3)=C(c3ccccc3O)Oc3[nH]c(=S)[nH]c(=O)c32)cc1 (centres undefined) gave an IC50 (Alpha-glucosidase) of 4000 µM, an IC50 (Albumin) of 19.5 µM and an IC50 [1] of 14.1 µM.

Work on CCc1ccc(-n2cnc3c(c2=N)C(c2ccccc2)C2=C(CC(C)(C)CC2=O)O3)cc1 (centres undefined) yielded a Time (Homo sapiens) of 61.8 s.

NC(=O)c1cnccn1 [PYRAZINAMIDE] showed an MIC [3] of 3.12 µg/mL (≈ 25.4 µM).

In the case of N#CC1=C(N)Oc2[nH]c(=O)[nH]c(=O)c2C1c1ccc([N+](=O)[O-])cc1 (centres undefined), the zone of inhibition at 20000 µg/mL (Bacillus cereus) is reported as 11 mm, the zone of inhibition at 20000 µg/mL (Staphylococcus aureus [6]) is reported as 4 mm and the zone of inhibition at 20000 µg/mL (Klebsiella pneumoniae) is reported as 4 mm. For the same molecule, the zone of inhibition at 20000 µg/mL (Pseudomonas aeruginosa) was 3 mm, the zone of inhibition at 20000 µg/mL (Escherichia coli [7]) was 12 mm and the “diameter of the inhibition zone (DIZ)” value (Staphylococcus aureus [4]) was 16 mm. For the same molecule, the “diameter of the inhibition zone (DIZ)” value (Bacillus subtilis) was 18 mm, the “diameter of the inhibition zone (DIZ)” value (Escherichia coli [5]) was 16 mm and the “diameter of the inhibition zone (DIZ)” value (Salmonella typhimurium) was 14 mm.

Molecule O=c1[nH]cc(F)c(=O)[nH]1 [FLUOROURACIL] has an IC50 (MCF7 [8]) of 5.4 µM.

CC1(C)CC(=O)C2=C(C1)Oc1ncn(-c3cccc4ccccc34)c(=N)c1C2c1ccccc1 (centres undefined) gave a Time (Homo sapiens) of 63.2 s.

In the case of CC1(C)CC(=O)C2=C(C1)Oc1ncn(-c3ccccc3)c(=N)c1C2c1ccccc1 (centres undefined), the Time (Homo sapiens) is reported as 57.1 s.

Work on O=c1[nH]c2c(c(=O)[nH]1)Oc1c(c(=O)oc3ccccc13)C2c1ccc(F)cc1 (centres undefined) yielded an Activity [9] of 70.1% and an Activity [10] of 62.1%.

For N#CC1=C(N)Oc2[nH]c(=O)[nH]c(=O)c2C1c1ccc(F)cc1 (centres undefined), the “diameter of the inhibition zone (DIZ)” value (Bacillus subtilis) was 10 mm, the “diameter of the inhibition zone (DIZ)” value (Escherichia coli [5]) was 8 mm and the “diameter of the inhibition zone (DIZ)” value (Salmonella typhimurium) was 12 mm.

For N#CC1=C(N)Oc2[nH]c(=O)[nH]c(=O)c2C1c1ccc(O)cc1 (centres undefined), the zone of inhibition at 20000 µg/mL (Bacillus cereus) was 14 mm, the zone of inhibition at 20000 µg/mL (Staphylococcus aureus [6]) was 15 mm and the zone of inhibition at 20000 µg/mL (Klebsiella pneumoniae) was 10 mm. The zone of inhibition at 20000 µg/mL (Pseudomonas aeruginosa) was 15 mm, the zone of inhibition at 20000 µg/mL (Escherichia coli [7]) was 15 mm and the “diameter of the inhibition zone (DIZ)” value (Staphylococcus aureus [4]) was 10 mm. For the same molecule, the “diameter of the inhibition zone (DIZ)” value (Escherichia coli [5]) was 10 mm and the “diameter of the inhibition zone (DIZ)” value (Salmonella typhimurium) was 10 mm.

COc1ccc(C2C(C#N)=C(N)Oc3[nH]c(=O)[nH]c(=O)c32)cc1OC (centres undefined) showed a zone of inhibition at 20000 µg/mL (Bacillus cereus) of 9 mm, a zone of inhibition at 20000 µg/mL (Staphylococcus aureus [6]) of 8 mm and a zone of inhibition at 20000 µg/mL (Klebsiella pneumoniae) of 14 mm. For the same molecule, the zone of inhibition at 20000 µg/mL (Pseudomonas aeruginosa) was 4 mm, the zone of inhibition at 20000 µg/mL (Escherichia coli [7]) was 8 mm and the “diameter of the inhibition zone (DIZ)” value (Bacillus subtilis) was 10 mm. The “diameter of the inhibition zone (DIZ)” value (Salmonella typhimurium) was 8 mm.

For O=c1nc2c3c([nH]1)Oc1ccccc1C3c1c(c3ccccc3oc1=O)O2 (centres undefined), the MIC [3] was 12.5 µg/mL (≈ 34.9 µM).

Molecule COc1ccc(C2C(C#N)=C(NC(=O)/C=C/C(=O)O)Oc3[nH]c(=O)[nH]c(=O)c32)cc1 (centres undefined) has an IC50 (HepG2) of 2.09 µM, an IC50 (MCF7 [2]) of 2.43 µM and an IC50 (HCT-116) of 2.61 µM.

In the case of COc1cc(C2CC(=O)Oc3[nH]c(=O)[nH]c(=O)c32)cc(OC)c1OC (centres undefined), the IC50 (MCF7 [8]) is reported as 8.9 µM.

COc1ccc(C2C(C(=O)N3CCCCC3)=C(c3ccccc3O)Oc3[nH]c(=S)[nH]c(=O)c32)cc1 (centres undefined) showed an IC50 (Alpha-glucosidase) of 5223 µM, an IC50 (Albumin) of 18.1 µM and an IC50 [1] of 16.1 µM.

Work on O=c1nc2c3c([nH]1)Oc1ccc(O)cc1C3c1c(c3ccccc3oc1=O)O2 (centres undefined) yielded an MIC [3] of 50 µg/mL (≈ 134 µM).

With O=c1[nH]c2c(c(=O)[nH]1)Oc1c(c(=O)oc3ccccc13)C2c1c(Cl)cccc1Cl (centres undefined) the Activity [9] was 71.2% and the Activity [10] was 65.4%.

COc1cc(C2C(C(=O)N3CCCCC3)=C(c3ccccc3O)Oc3[nH]c(=S)[nH]c(=O)c32)ccc1O (centres undefined) gave an IC50 (Alpha-glucosidase) of 4862 µM, an IC50 (Albumin) of 23.3 µM and an IC50 [1] of 22.6 µM.
